Values quoted from earlier work, collected in patent publication US8841297B2, “Phenylimidazole derivative as PDE10A enzyme inhibitor” (H. Lundbeck A/S, priority 2009, dated 2014).

Columns and labels:
[1] = system: PCP induced hyperactivity; conditions: rats; cited from earlier work
[2] = system: amphetamine induced hyperactivity; conditions: rats; cited from earlier work
[3] = system: cataleptic effect of haloperidol; conditions: rats, cited from earlier work

Which “effect on hyperactivity induced by PCP” value [1] does the source give for `COc1ccc(Cc2nccc3cc(OC)c(OC)cc23)cc1OC` [Papaverine, papaverine] here?
The value was “reduced hyperactivity”.

What about the “reduction of amphetamine induced hyperactivity” value [2] of the same compound?
Its value is “insignificant”.

And the “catalepsy on its own” value ([3]; papaverine alone)?
The value was “did not cause catalepsy on its own”.

And the “effect on the cataleptic effect of haloperidol” value ([3]; together with haloperidol)?
The value was “potentiated the cataleptic effect”.
